# According to patent publication US20060204596A1, “Formulation of a mixture of Free-B-Ring flavonoids and flavans as a therapeutic agent” (Unigen Pharmaceuticals, Inc., priority 2005, published 2006):
# Like-named read-outs stand apart in the source and are kept apart here. Marks after values point to notes of the source that are not given here.
# Legend:
# COX-1 [1] = molecular target: T1, COX-1 (Homo sapiens, UniProt P23219); conditions: cited from earlier work
# bleeding time [2] = assay: bleeding time assay (Test #3, #4); format: in vivo, ICR male mice
# Protocol: The bleeding time assay was conducted according to the method described by […] and Kling (1997) Thrombosis Research 10:619-622) and Butler et al. (1982) Thromb Haemostas 47:46-49. Test articles were administered to five ICR male mice one hour before standardized transection of the tip (1.0 mm) of each tail. The mice restrained in holders were immediately suspended vertically with the tail tips immersed in a test tube containing saline at 37° C. There was no maximum cut-off time set. The measurements started as actual bleeding was observed and stopped as bleeding ceased for 15 seconds or longer at any time. Data were analyzed using the Student's t-test. In one assay (Test #3), aspirin alone at 3, 10, 65 and 100 mg/kg or UP736 at a dose of 100 mg/kg, alone or in combination with aspirin at 3, 10 and 65 mg/kg was administered orally to groups of 5 ICR male mice. […] The assay was repeated under the same experimental conditions (Test # 4).
# bleeding time [3] = system: bleeding time; design: species or system ICR derived male mice; conditions: male, ICR, mouse, in vivo, po, 1 h
# Protocol: To verify the bleeding time results, UP736 or UP736 in combination with aspirin was tested again in an independent study (Test #5) using a modified procedure carried out. UP736 was administered orally at a dose of 100 mg/kg, alone or in combination with aspirin at 3, 10 and 30 mg/kg to groups of 5 ICR derived male mice, weighing 22±2 g, 1 hour before transection of the tip (0.3 mm) of each tail. In addition, aspirin alone at 3, 10, 30 and 100 mg/kg was similarly given to mice. The mice, in holders, were immediately suspended vertically with the distal 2 cm of each tail immersed in a test tube containing saline at 37° C. A maximum cut-off time of 180 seconds was set. If bleeding ceased for 15 seconds or longer at any time during the 180 seconds observation period, the measurements were discontinued and any subsequent bleeding would not be considered. Prolongation of bleeding time by 50 percent or more (50%) relative to a control group of animals was considered significant. The results are consistent with those obtained from the above-described experiments (Test #3 and # 4).
# [4] = system: arachidonic acid induced platelet aggregation; assay: platelet aggregation assay in platelet rich plasma; format: cell-based, New Zealand Rabbits; conditions: UP736 0
# Protocol: UP736, aspirin or combinations thereof were dissolved in 0.3% DMSO and incubated with the plasma at 37° C. for 5 minutes. Agonist or antagonist effect of the compounds was quantified by optical density of aggregation. Significance criteria used for agonist effect is that >50% platelet aggregation relative to arachidonic acid response. […] In this assay, various concentrations of UP736 (10, 2 and 0.2 μM) and aspirin (30 and 3 μM) were tested individually as either agonist or antagonist of platelet aggregation in platelet rich rabbit plasma. […] In another assay (Test# 2) performed under the same experimental conditions, mixtures of UP736 at lower concentrations (0.2, 0.067, 0.022 and 0.007 μM) and aspirin at a concentration of 3 μM were tested.
# COX-2 = molecular target: T2, COX-2 (Homo sapiens, UniProt P35354); assay: COX-2 enzymatic inhibition; format: biochemical
# T2 sequence (P35354 18-604): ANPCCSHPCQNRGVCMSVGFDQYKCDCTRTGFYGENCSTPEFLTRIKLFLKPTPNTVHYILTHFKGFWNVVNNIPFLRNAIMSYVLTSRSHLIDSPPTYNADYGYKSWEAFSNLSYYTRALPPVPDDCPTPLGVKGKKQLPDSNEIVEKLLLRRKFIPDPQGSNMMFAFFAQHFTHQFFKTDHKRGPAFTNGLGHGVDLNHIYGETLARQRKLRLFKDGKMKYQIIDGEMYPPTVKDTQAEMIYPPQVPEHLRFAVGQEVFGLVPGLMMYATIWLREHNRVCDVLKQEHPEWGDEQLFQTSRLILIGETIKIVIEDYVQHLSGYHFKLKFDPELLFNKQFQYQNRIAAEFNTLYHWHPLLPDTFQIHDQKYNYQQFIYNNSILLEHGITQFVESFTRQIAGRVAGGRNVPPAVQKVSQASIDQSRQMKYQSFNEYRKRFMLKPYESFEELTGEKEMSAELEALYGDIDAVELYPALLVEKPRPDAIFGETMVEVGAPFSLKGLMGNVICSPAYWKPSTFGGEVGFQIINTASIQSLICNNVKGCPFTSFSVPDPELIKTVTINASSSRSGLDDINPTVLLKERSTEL
# Description: (§1) UP736 is a natural product derived from two traditional plants that contain antioxidants and other naturally occurring dietary compounds that aid the body in multiple ways.
# COX-1 [5] = molecular target: T1, COX-1; assay: COX-1 enzymatic inhibition; format: biochemical
# Description: as §1
# [6] = Oxygen Radical Absorption Capacity (ORAC)
# Description: […]. However, it can be preserved by a number of preservatives, including but not limited to stannous chloride (SnCl2), sodium bisulfate/metabisulfite (SBS), and other preservatives.
# [7] = Test #3 (n = 5), 3 mg/kg orally
# [8] = Test #3 (n = 5), 10 mg/kg orally
# [9] = Test #3 (n = 5), 65 mg/kg orally
# [10] = Test #3 (n = 5), 100 mg/kg orally
# [11] = Test #3 and #4 combined (n = 9-10), 3 mg/kg orally
# [12] = Test #3 and #4 combined (n = 9-10), 10 mg/kg orally
# [13] = Test #3 and #4 combined (n = 9-10), 65 mg/kg orally
# [14] = Test #3 and #4 combined (n = 9-10), 100 mg/kg orally
# [15] = Test #4 (n = 5), 3 mg/kg orally
# [16] = Test #4 (n = 5), 10 mg/kg orally
# [17] = Test #4 (n = 5), 65 mg/kg orally
# [18] = Test #4 (n = 5), 100 mg/kg orally
# T1 sequence (P23219 24-599): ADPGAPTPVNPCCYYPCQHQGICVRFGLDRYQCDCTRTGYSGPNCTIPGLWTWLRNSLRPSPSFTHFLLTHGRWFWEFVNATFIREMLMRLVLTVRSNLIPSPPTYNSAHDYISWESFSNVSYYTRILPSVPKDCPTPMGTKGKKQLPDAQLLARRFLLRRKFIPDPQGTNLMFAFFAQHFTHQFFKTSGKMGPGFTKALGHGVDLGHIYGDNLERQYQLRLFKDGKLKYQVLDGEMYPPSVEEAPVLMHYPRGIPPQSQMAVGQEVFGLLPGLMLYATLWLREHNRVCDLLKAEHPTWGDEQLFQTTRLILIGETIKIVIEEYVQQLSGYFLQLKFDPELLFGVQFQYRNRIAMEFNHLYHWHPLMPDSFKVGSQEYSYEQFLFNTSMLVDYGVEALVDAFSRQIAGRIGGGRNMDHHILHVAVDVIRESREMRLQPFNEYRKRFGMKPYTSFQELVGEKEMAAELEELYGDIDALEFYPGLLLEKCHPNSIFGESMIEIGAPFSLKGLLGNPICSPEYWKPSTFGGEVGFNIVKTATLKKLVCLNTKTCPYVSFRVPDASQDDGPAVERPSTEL
molecule,measurement,setting,value
CC(=O)Oc1ccccc1C(=O)O [Aspirin],selective against COX-1,COX-1 [1],more than 150 times
same,% Change Relative to Vehicle Group,bleeding time [2]; [7],18.7 ↑ %
same,Average Bleeding Time ± SD,bleeding time [2]; [7],77.2 ± 13.0 s
same,% Change Relative to Vehicle Group,bleeding time [2]; [8],14.5 ↑ %
same,Average Bleeding Time ± SD,bleeding time [2]; [8],74.4 ± 15.4 s
same,% Change Relative to Vehicle Group,bleeding time [2]; [9],61.5* ↑ %
same,Average Bleeding Time ± SD,bleeding time [2]; [9],105 ± 15.1 s
same,% Change Relative to Vehicle Group,bleeding time [2]; [10],83* ↑ %
same,Average Bleeding Time ± SD,bleeding time [2]; [10],119 ± 14.0 s
same,% Change Relative to Vehicle Group,bleeding time [2]; [11],21.7 ↑ %
same,Average Bleeding Time ± SD,bleeding time [2]; [11],83.3 ± 12.6 s
same,% Change Relative to Vehicle Group,bleeding time [2]; [12],15.6 ↑ %
same,Average Bleeding Time ± SD,bleeding time [2]; [12],79.5 ± 13.1 s
same,% Change Relative to Vehicle Group,bleeding time [2]; [13],46.1 ↑ %
same,Average Bleeding Time ± SD,bleeding time [2]; [13],100.5 ± 11.9 s
same,% Change Relative to Vehicle Group,bleeding time [2]; [14],78.2 ↑ %
same,Average Bleeding Time ± SD,bleeding time [2]; [14],122.6 ± 13.9 s
same,% Change Relative to Vehicle Group,bleeding time [2]; [15],23.1 ↑ %
same,Average Bleeding Time ± SD,bleeding time [2]; [15],89.4 ± 9.7 s
same,% Change Relative to Vehicle Group,bleeding time [2]; [16],16.5 ↑ %
same,Average Bleeding Time ± SD,bleeding time [2]; [16],84.6 ± 9.0 s
same,% Change Relative to Vehicle Group,bleeding time [2]; [17],32.2* ↑ %
same,Average Bleeding Time ± SD,bleeding time [2]; [17],96 ± 6.4 s
same,% Change Relative to Vehicle Group,bleeding time [2]; [18],73.8* ↑ %
same,Average Bleeding Time ± SD,bleeding time [2]; [18],126.2 ± 14.3 s
same,% Change Relative to Vehicle Group,bleeding time [3]; 3 mg/kg,0%
same,Average Bleeding Time ± SD,bleeding time [3]; 3 mg/kg,42.8 ± 26.2 s
same,% Change Relative to Vehicle Group,bleeding time [3]; 10 mg/kg,0%
same,Average Bleeding Time ± SD,bleeding time [3]; 10 mg/kg,39.8 ± 22.4 s
same,% Change Relative to Vehicle Group,bleeding time [3]; 30 mg/kg,27 ↑ %
same,Average Bleeding Time ± SD,bleeding time [3]; 30 mg/kg,56.4 ± 27.3 s
same,% Change Relative to Vehicle Group,bleeding time [3]; 100 mg/kg,70* ↑ %
same,Average Bleeding Time ± SD,bleeding time [3]; 100 mg/kg,75.0 ± 38.8 s
same,Agonist Effect,"[4]; Test #1, aspirin 3.0 μM",0%
same,Antagonist Effect,"[4]; Test #1, aspirin 3.0 μM",1%
same,Agonist Effect,"[4]; Test #1, aspirin 30.0 μM",0%
same,Antagonist Effect,"[4]; Test #1, aspirin 30.0 μM",100%
same,Agonist Effect,"[4]; Test #2, aspirin 3.0 μM",0%
same,Antagonist Effect,"[4]; Test #2, aspirin 3.0 μM",8%
same,COX-2 Selectivity Relative COX-1,COX-2,0.006
O=C(O)[C@H]1O[C@@H](Oc2cc3oc(-c4ccccc4)cc(=O)c3c(O)c2O)[C@H](O)[C@@H](O)[C@@H]1O [baicalin],IC50 for COX-1,COX-1 [5],0.44 μg/mL/unit of enzyme
same,IC50 for COX-2,COX-2,0.28 μg/mL/unit
same,selectivity against COX-2,COX-2; COX-1 vs COX-2 IC50 profile,twice
CC1(C)Cc2c(-c3ccccc3)c(-c3ccc(Cl)cc3)c(CC(=O)O)n2C1 [Licofelone],COX-2 Selectivity Relative COX-1,COX-2,1
CS(=O)(=O)c1ccc(C2=C(c3ccccc3)C(=O)OC2)cc1 [Rofecoxib],COX-2 Selectivity Relative COX-1,COX-2,250
catechin,Oxygen Radical Absorption Capacity (ORAC),[6],"20,000"
